From ChEMBL document CHEMBL1201862, “PubChem BioAssay data set” (2004)
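Results reflect a 48-hour exposure of cells in 96-well plates to compound at five concentrations. GI50: concentration for 50% inhibition of growth.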 The source made the active and inactive calls. No stated cut-off is given here; in the data, active = GI50 up to about 1.1 µM and inactive = higher.

Experiments:
Assay in all cases: growth of human tumour cells (NCI), 48 h
HCT-116 = system: HCT-116
UACC-62 = system: UACC-62
KM12 = system: KM12
RPMI-8226 = system: RPMI-8226
A549 = system: A549
Hs-578T = system: Hs-578T
NCI/ADR-RES = system: NCI/ADR-RES
COLO 205 = system: COLO 205
LOX IMVI = system: LOX IMVI
HOP-62 = system: HOP-62
OVCAR-8 = system: OVCAR-8
MCF7 = system: MCF7
CAKI-1 = system: CAKI-1
SW-620 = system: SW-620
TK-10 = system: TK-10
RXF 393 = system: RXF 393
IGROV-1 = system: IGROV-1
Malme-3M = system: Malme-3M
SNB-19 = system: SNB-19
OVCAR-5 = system: OVCAR-5
CCRF-CEM = system: CCRF-CEM
SK-MEL-5 = system: SK-MEL-5
HL-60 = system: HL-60
DU-145 = system: DU-145
SR = system: SR
BT-549 = system: BT-549
PC-3 = system: PC-3
OVCAR-3 = system: OVCAR-3
K562 = system: K562
OVCAR-4 = system: OVCAR-4
HCT-15 = system: HCT-15
M14 = system: M14
ACHN = system: ACHN
EKVX = system: EKVX
UO-31 = system: UO-31
NCI-H460 = system: NCI-H460
SF-539 = system: SF-539
U-251 = system: U-251
MDA-MB-435 = system: MDA-MB-435
HT-29 = system: HT-29
786-0 = system: 786-0
MDA-N = system: MDA-N
T47D = system: T47D
SK-MEL-2 = system: SK-MEL-2
UACC-257 = system: UACC-257
NCI-H23 = system: NCI-H23
SNB-75 = system: SNB-75
NCI-H522 = system: NCI-H522
A498 = system: A498
SK-MEL-28 = system: SK-MEL-28
SN12C = system: SN12C
HCC 2998 = system: HCC 2998
HOP-92 = system: HOP-92
SF-295 = system: SF-295
SF-268 = system: SF-268
MOLT-4 = system: MOLT-4
MDA-MB-231 = system: MDA-MB-231
NCI-H226 = system: NCI-H226

For `CCN(CC)CCC(=O)c1ccc(Oc2ccc(Cl)cc2)cc1`, the GI50 (HCT-116) was 17.6 µM (inactive), the GI50 (UACC-62) was 18.6 µM (inactive) and the GI50 (KM12) was 14.4 µM (inactive). The GI50 (RPMI-8226) was 3.82 µM (inactive), the GI50 (A549) was > 100 µM (inactive) and the GI50 (Hs-578T) was 23.6 µM (inactive). The GI50 (NCI/ADR-RES) was 22.3 µM (inactive), the GI50 (COLO 205) was 24.3 µM (inactive) and the GI50 (LOX IMVI) was 14.6 µM (inactive). For the same molecule, the GI50 (HOP-62) was 11.8 µM (inactive), the GI50 (OVCAR-8) was 19.9 µM (inactive) and the GI50 (MCF7) was 17.7 µM (inactive). The GI50 (CAKI-1) was 23.3 µM (inactive), the GI50 (SW-620) was 22 µM (inactive) and the GI50 (TK-10) was 18.3 µM (inactive). The GI50 (RXF 393) was 22.3 µM (inactive), the GI50 (IGROV-1) was 20.4 µM (inactive) and the GI50 (Malme-3M) was 18 µM (inactive). For the same molecule, the GI50 (SNB-19) was 30 µM (inactive), the GI50 (OVCAR-5) was 16.2 µM (inactive) and the GI50 (CCRF-CEM) was 19.5 µM (inactive). The GI50 (SK-MEL-5) was 17.5 µM (inactive), the GI50 (HL-60) was 21.1 µM (inactive) and the GI50 (DU-145) was 21.6 µM (inactive). For the same molecule, the GI50 (SR) was 20.1 µM (inactive), the GI50 (BT-549) was 17 µM (inactive) and the GI50 (PC-3) was 15.1 µM (inactive). The GI50 (OVCAR-3) was 15.3 µM (inactive), the GI50 (K562) was 31.8 µM (inactive) and the GI50 (OVCAR-4) was 15.8 µM (inactive). The GI50 (HCT-15) was 18.4 µM, the GI50 (M14) was 15.1 µM (inactive) and the GI50 (ACHN) was 12.9 µM (inactive). For the same molecule, the GI50 (EKVX) was 19.5 µM (inactive), the GI50 (UO-31) was 18 µM (inactive) and the GI50 (NCI-H460) was 14.7 µM (inactive). The GI50 (SF-539) was 24.8 µM (inactive), the GI50 (U-251) was 16.9 µM (inactive) and the GI50 (MDA-MB-435) was 18.1 µM (inactive). The GI50 (HT-29) was 21.2 µM (inactive), the GI50 (786-0) was 14.9 µM (inactive) and the GI50 (MDA-N) was 16.1 µM (inactive). The GI50 (T47D) was 20.7 µM (inactive), the GI50 (SK-MEL-2) was 14.5 µM (inactive) and the GI50 (UACC-257) was 14 µM (inactive). The GI50 (NCI-H23) was 17.2 µM (inactive), the GI50 (SNB-75) was 12 µM (inactive) and the GI50 (NCI-H522) was 19 µM (inactive). For the same molecule, the GI50 (A498) was 16.1 µM (inactive), the GI50 (SK-MEL-28) was 17.7 µM (inactive) and the GI50 (SN12C) was 17.4 µM (inactive). The GI50 (HCC 2998) was 18.8 µM (inactive), the GI50 (HOP-92) was 16.2 µM (inactive) and the GI50 (SF-295) was 18.4 µM (inactive). The GI50 (SF-268) was 16.7 µM (inactive), the GI50 (MOLT-4) was 20.4 µM (inactive) and the GI50 (MDA-MB-231) was 14.5 µM (inactive).
`CS(=O)(=O)N1CC(CCl)c2ccc(O)cc21` (stereo not drawn) was tested, and the GI50 (HCT-116) was 2.71 µM (inactive), the GI50 (UACC-62) was 4.17 µM (inactive) and the GI50 (KM12) was 2.46 µM (inactive). For the same molecule, the GI50 (RPMI-8226) was 2.03 µM (inactive), the GI50 (A549) was 3.19 µM (inactive) and the GI50 (Hs-578T) was 4.32 µM (inactive). The GI50 (NCI/ADR-RES) was 2.56 µM (inactive), the GI50 (NCI-H226) was 2.34 µM (inactive) and the GI50 (COLO 205) was 1.9 µM (inactive). For the same molecule, the GI50 (LOX IMVI) was 3.57 µM (inactive), the GI50 (HOP-62) was 3.56 µM (inactive) and the GI50 (OVCAR-8) was 2.08 µM (inactive). For the same molecule, the GI50 (MCF7) was 1.98 µM (inactive), the GI50 (CAKI-1) was 2.42 µM (inactive) and the GI50 (SW-620) was 2.6 µM (inactive). The GI50 (TK-10) was 2.32 µM (inactive), the GI50 (RXF 393) was 1.4 µM (inactive) and the GI50 (IGROV-1) was 2.07 µM (inactive). For the same molecule, the GI50 (Malme-3M) was 2.19 µM (inactive), the GI50 (OVCAR-5) was 3.63 µM (inactive) and the GI50 (CCRF-CEM) was 1.58 µM (inactive). For the same molecule, the GI50 (SK-MEL-5) was 1.55 µM (inactive), the GI50 (HL-60) was 1.57 µM (inactive) and the GI50 (DU-145) was 3.46 µM (inactive). For the same molecule, the GI50 (SR) was 2.84 µM (inactive), the GI50 (BT-549) was 2.02 µM (inactive) and the GI50 (PC-3) was 2.17 µM (inactive). The GI50 (OVCAR-3) was 2.95 µM (inactive), the GI50 (K562) was 2.47 µM (inactive) and the GI50 (OVCAR-4) was 2.86 µM (inactive). The GI50 (HCT-15) was 3.15 µM, the GI50 (ACHN) was 3.4 µM (inactive) and the GI50 (EKVX) was 5.31 µM (inactive). The GI50 (UO-31) was 2.32 µM (inactive), the GI50 (NCI-H460) was 2.9 µM (inactive) and the GI50 (SF-539) was 2.04 µM (inactive). The GI50 (U-251) was 2.74 µM (inactive), the GI50 (MDA-MB-435) was 1.89 µM (inactive) and the GI50 (HT-29) was 2.86 µM (inactive). The GI50 (786-0) was 3.31 µM (inactive), the GI50 (MDA-N) was 1.52 µM (inactive) and the GI50 (T47D) was 7.4 µM (inactive). For the same molecule, the GI50 (SK-MEL-2) was 2.94 µM (inactive), the GI50 (UACC-257) was 2.44 µM (inactive) and the GI50 (NCI-H23) was 2.02 µM (inactive). For the same molecule, the GI50 (SNB-75) was 2.71 µM (inactive), the GI50 (NCI-H522) was 1.47 µM (inactive) and the GI50 (A498) was 1.83 µM (inactive). For the same molecule, the GI50 (SK-MEL-28) was 3.4 µM (inactive), the GI50 (SN12C) was 2.91 µM (inactive) and the GI50 (HCC 2998) was 1.95 µM (inactive). For the same molecule, the GI50 (HOP-92) was 3.11 µM (inactive), the GI50 (SF-295) was 2.95 µM (inactive) and the GI50 (SF-268) was 0.155 µM (active). For the same molecule, the GI50 (MOLT-4) was 2.09 µM (inactive) and the GI50 (MDA-MB-231) was 2.2 µM (inactive).
